Patent publication US12077503B2, “Substituted cyclic amides and their use as herbicides” (FMC CORPORATION, priority 2015, dated 2024)

What was measured:
Assay type in all cases: in vivo
[1] = test system: ivy-leaved morning glory (Ipomoea hederacea); assay: Test G Post-Emergence Protocol; conditions: Ipomoea, post-emergence, 312 h; for pest or weed control at 15.625 g/ha: 15.625 g ai/ha, evaluated after 13 days (100=total damage to plant; 0=no damage to plant), read-out: Morningglory, Ivy-leaved damage rating; for pest or weed control at 62.5 g/ha: 62.5 g ai/ha, read-out: Morningglory, Ivy-leaved damage rating (100=total damage to plant; 0=no damage to plant); for pest or weed control at 62.5 g/ha / pest or weed control at 250 g/ha: evaluated after 13 days; for pest or weed control at 250 g/ha: 250 g ai/ha, read-out: damage to plant, Morningglory, Ivy-leaved (100=total damage to plant; 0=no damage to plant)
In short: (§1)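 Post-emergence herbicidal damage, scored visually 0–100 at 13 days. Application at 15.625, 62.5 or 250 g/ha onto 8-day-old plants grown under glasshouse control.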

[2] = test system: giant foxtail (Setaria faberi); assay: Test G Post-Emergence Protocol; conditions: Setaria faberi, post-emergence, 312 h; for pest or weed control at 15.625 g/ha: 15.625 g ai/ha, evaluated after 13 days (100=total damage to plant; 0=no damage to plant), read-out: Foxtail, Giant damage rating; for pest or weed control at 62.5 g/ha: 62.5 g ai/ha, read-out: Foxtail, Giant damage rating (100=total damage to plant; 0=no damage to plant); for pest or weed control at 62.5 g/ha / pest or weed control at 250 g/ha: evaluated after 13 days; for pest or weed control at 250 g/ha: 250 g ai/ha, read-out: damage to plant, Foxtail, Giant (100=total damage to plant; 0=no damage to plant)
In short: as §1

[3] = test system: barnyardgrass (Echinochloa crus-galli); assay: Test G Post-Emergence Protocol; conditions: Echinochloa crus-galli, post-emergence, 312 h; for pest or weed control at 15.625 g/ha: 15.625 g ai/ha, evaluated after 13 days (100=total damage to plant; 0=no damage to plant), read-out: Barnyardgrass damage rating; for pest or weed control at 62.5 g/ha: 62.5 g ai/ha, read-out: Barnyardgrass damage rating (100=total damage to plant; 0=no damage to plant); for pest or weed control at 62.5 g/ha / pest or weed control at 250 g/ha: evaluated after 13 days; for pest or weed control at 250 g/ha: 250 g ai/ha, read-out: damage to plant, Barnyardgrass (100=total damage to plant; 0=no damage to plant)
In short: as §1

[4] = test system: redroot pigweed (Amaranthus retroflexus); assay: Test G Post-Emergence Protocol; conditions: Amaranthus retroflexus, post-emergence, 312 h; for pest or weed control at 15.625 g/ha: 15.625 g ai/ha, evaluated after 13 days (100=total damage to plant; 0=no damage to plant), read-out: Pigweed, Redroot damage rating; for pest or weed control at 62.5 g/ha: 62.5 g ai/ha, read-out: Pigweed, Redroot damage rating (100=total damage to plant; 0=no damage to plant); for pest or weed control at 62.5 g/ha / pest or weed control at 250 g/ha: evaluated after 13 days; for pest or weed control at 250 g/ha: 250 g ai/ha, read-out: damage to plant, Pigweed, Redroot (100=total damage to plant; 0=no damage to plant)
In short: as §1

corn (Zea mays) [5] = assay: Test G Post-Emergence Protocol; conditions: Zea mays, post-emergence, 312 h; for plant injury at 15.625 g/ha: 15.625 g ai/ha, evaluated after 13 days (100=total damage to plant; 0=no damage to plant), read-out: Corn damage rating; for plant injury at 62.5 g/ha: 62.5 g ai/ha, read-out: Corn damage rating (100=total damage to plant; 0=no damage to plant); for plant injury at 62.5 g/ha / plant injury at 250 g/ha: evaluated after 13 days; for plant injury at 250 g/ha: 250 g ai/ha, read-out: damage to plant, Corn (100=total damage to plant; 0=no damage to plant)
In short: as §1

[6] = test system: velvetleaf (Abutilon theophrasti); assay: Test G Post-Emergence Protocol; conditions: Abutilon theophrasti, post-emergence, 312 h; for pest or weed control at 15.625 g/ha: 15.625 g ai/ha, evaluated after 13 days (100=total damage to plant; 0=no damage to plant), read-out: Velvetleaf damage rating; for pest or weed control at 62.5 g/ha: 62.5 g ai/ha, read-out: Velvetleaf damage rating (100=total damage to plant; 0=no damage to plant); for pest or weed control at 62.5 g/ha / pest or weed control at 250 g/ha: evaluated after 13 days; for pest or weed control at 250 g/ha: 250 g ai/ha, read-out: damage to plant, Velvetleaf (100=total damage to plant; 0=no damage to plant)
In short: as §1

[7] = test system: ivy-leaved morning glory (Ipomoea hederacea); assay: Test G Pre-Emergence Protocol; conditions: Ipomoea, pre-emergence, 312 h, evaluated after 13 days; for pest or weed control at 15.625 g/ha: 15.625 g ai/ha, read-out: Morning-glory, Ivy-leaved damage rating (100=total damage to plant; 0=no damage to plant); for pest or weed control at 62.5 g/ha: 62.5 g ai/ha, 100=total damage to plant, 0=no damage to plant, read-out: plant damage rating, Morningglory, Ivy-leaved; for pest or weed control at 250 g/ha: 250 g ai/ha, read-out: Morningglory, Ivy-leaved damage rating (100=total damage to plant; 0=no damage to plant)
In short: (§2)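 One day after sowing, pots are treated with a spray of test compound formulated in acetone/water 50:50 plus 0.5% Tween 20, giving 15.625, 62.5 or 250 g/ha. Evaluation on a 0–100 damage scale follows 13 days of glasshouse growth.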

[8] = test system: giant foxtail (Setaria faberi); assay: Test G Pre-Emergence Protocol; conditions: Setaria faberi, pre-emergence, 312 h, evaluated after 13 days; for pest or weed control at 15.625 g/ha: 15.625 g ai/ha; for pest or weed control at 15.625 g/ha / pest or weed control at 250 g/ha: read-out: Foxtail, Giant damage rating (100=total damage to plant; 0=no damage to plant); for pest or weed control at 62.5 g/ha: 62.5 g ai/ha, 100=total damage to plant, 0=no damage to plant, read-out: plant damage rating, Foxtail, Giant; for pest or weed control at 250 g/ha: 250 g ai/ha
In short: as §2

[9] = test system: barnyardgrass (Echinochloa crus-galli); assay: Test G Pre-Emergence Protocol; conditions: Echinochloa crus-galli, pre-emergence, 312 h, evaluated after 13 days; for pest or weed control at 15.625 g/ha: 15.625 g ai/ha, read-out: Barnyard grass damage rating (100=total damage to plant; 0=no damage to plant); for pest or weed control at 62.5 g/ha: 62.5 g ai/ha, 100=total damage to plant, 0=no damage to plant, read-out: plant damage rating, Barnyardgrass; for pest or weed control at 250 g/ha: 250 g ai/ha, read-out: Barnyardgrass damage rating (100=total damage to plant; 0=no damage to plant)
In short: as §2

[10] = test system: redroot pigweed (Amaranthus retroflexus); assay: Test G Pre-Emergence Protocol; conditions: Amaranthus retroflexus, pre-emergence, 312 h, evaluated after 13 days; for pest or weed control at 15.625 g/ha: 15.625 g ai/ha; for pest or weed control at 15.625 g/ha / pest or weed control at 250 g/ha: read-out: Pigweed, Redroot damage rating (100=total damage to plant; 0=no damage to plant); for pest or weed control at 62.5 g/ha: 62.5 g ai/ha, 100=total damage to plant, 0=no damage to plant, read-out: plant damage rating, Pigweed, Redroot; for pest or weed control at 250 g/ha: 250 g ai/ha
In short: as §2

corn (Zea mays) [11] = assay: Test G Pre-Emergence Protocol; conditions: Zea mays, pre-emergence, 312 h, evaluated after 13 days; for plant injury at 15.625 g/ha: 15.625 g ai/ha; for plant injury at 15.625 g/ha / plant injury at 250 g/ha: read-out: Corn damage rating (100=total damage to plant; 0=no damage to plant); for plant injury at 62.5 g/ha: 62.5 g ai/ha, 100=total damage to plant, 0=no damage to plant, read-out: plant damage rating, Corn; for plant injury at 250 g/ha: 250 g ai/ha
In short: as §2

[12] = test system: velvetleaf (Abutilon theophrasti); assay: Test G Pre-Emergence Protocol; conditions: Abutilon theophrasti, pre-emergence, 312 h, evaluated after 13 days; for pest or weed control at 15.625 g/ha: 15.625 g ai/ha; for pest or weed control at 15.625 g/ha / pest or weed control at 250 g/ha: read-out: Velvetleaf damage rating (100=total damage to plant; 0=no damage to plant); for pest or weed control at 62.5 g/ha: 62.5 g ai/ha, 100=total damage to plant, 0=no damage to plant, read-out: plant damage rating, Velvetleaf; for pest or weed control at 250 g/ha: 250 g ai/ha
In short: as §2

Structure (SMILES)	pest or weed control at 15.625 g/ha [1]	pest or weed control at 62.5 g/ha [1]	pest or weed control at 250 g/ha [1]	pest or weed control at 15.625 g/ha [2]	pest or weed control at 62.5 g/ha [2]	pest or weed control at 250 g/ha [2]	pest or weed control at 15.625 g/ha [3]	pest or weed control at 62.5 g/ha [3]	pest or weed control at 250 g/ha [3]	pest or weed control at 15.625 g/ha [4]	pest or weed control at 62.5 g/ha [4]	pest or weed control at 250 g/ha [4]	plant injury at 15.625 g/ha (corn (Zea mays) [5])	plant injury at 62.5 g/ha (corn (Zea mays) [5])	plant injury at 250 g/ha (corn (Zea mays) [5])	pest or weed control at 15.625 g/ha [6]	pest or weed control at 62.5 g/ha [6]	pest or weed control at 250 g/ha [6]	pest or weed control at 15.625 g/ha [7]	pest or weed control at 62.5 g/ha [7]	further results
Cc1cccc(NC(=O)[C@H]2C(=O)N(C)C[C@@H]2c2ccc(C(F)(F)F)cc2)n1 (racemic) [Compound 1429]	0%	10%	20%	0%	30%	40%	0%	10%	20%	0%	0%	80%	10%	0%	10%	0%	0%	30%	0%	0%	pest or weed control at 250 g/ha [7]: 0%; pest or weed control at 15.625 g/ha [8]: 0%; pest or weed control at 62.5 g/ha [8]: 70%; pest or weed control at 250 g/ha [8]: 80%; pest or weed control at 15.625 g/ha [9]: 0%; pest or weed control at 62.5 g/ha [9]: 40%; pest or weed control at 250 g/ha [9]: 70%; pest or weed control at 15.625 g/ha [10]: 0%; pest or weed control at 62.5 g/ha [10]: 0%; pest or weed control at 250 g/ha [10]: 0%; plant injury at 15.625 g/ha (corn (Zea mays) [11]): 0%; plant injury at 62.5 g/ha (corn (Zea mays) [11]): 0%; plant injury at 250 g/ha (corn (Zea mays) [11]): 0%; pest or weed control at 15.625 g/ha [12]: 0%; pest or weed control at 62.5 g/ha [12]: 0%; pest or weed control at 250 g/ha [12]: 50%
CN1C[C@H](c2ccc(C(F)(F)F)cc2)[C@@H](C(=O)Nc2ncccc2[N+](=O)[O-])C1=O (racemic) [Compound 1431]	0%	0%	0%	0%	0%	0%	0%	0%	0%	0%	0%	40%	0%	0%	0%	0%	0%	10%	0%	0%	pest or weed control at 250 g/ha [7]: 0%; pest or weed control at 15.625 g/ha [8]: 0%; pest or weed control at 62.5 g/ha [8]: 0%; pest or weed control at 250 g/ha [8]: 0%; pest or weed control at 15.625 g/ha [9]: 0%; pest or weed control at 62.5 g/ha [9]: 0%; pest or weed control at 250 g/ha [9]: 0%; pest or weed control at 15.625 g/ha [10]: 0%; pest or weed control at 62.5 g/ha [10]: 0%; pest or weed control at 250 g/ha [10]: 0%; plant injury at 15.625 g/ha (corn (Zea mays) [11]): 0%; plant injury at 62.5 g/ha (corn (Zea mays) [11]): 0%; plant injury at 250 g/ha (corn (Zea mays) [11]): 0%; pest or weed control at 15.625 g/ha [12]: 0%; pest or weed control at 62.5 g/ha [12]: 0%; pest or weed control at 250 g/ha [12]: 0%
CN1C[C@H](c2ccc(C(F)(F)F)cc2)[C@@H](C(=O)Nc2ccc(Cl)cc2[N+](=O)[O-])C1=O (racemic) [Compound 1432]	0%	0%	0%	0%	0%	0%	0%	0%	0%	0%	0%	0%	0%	0%	0%	0%	0%	0%	0%	0%	pest or weed control at 250 g/ha [7]: 0%; pest or weed control at 15.625 g/ha [8]: 0%; pest or weed control at 62.5 g/ha [8]: 0%; pest or weed control at 250 g/ha [8]: 0%; pest or weed control at 15.625 g/ha [9]: 0%; pest or weed control at 62.5 g/ha [9]: 0%; pest or weed control at 250 g/ha [9]: 0%; pest or weed control at 15.625 g/ha [10]: 0%; pest or weed control at 62.5 g/ha [10]: 0%; pest or weed control at 250 g/ha [10]: 0%; plant injury at 15.625 g/ha (corn (Zea mays) [11]): 0%; plant injury at 62.5 g/ha (corn (Zea mays) [11]): 0%; plant injury at 250 g/ha (corn (Zea mays) [11]): 0%; pest or weed control at 15.625 g/ha [12]: 0%; pest or weed control at 62.5 g/ha [12]: 0%; pest or weed control at 250 g/ha [12]: 0%
